# Experimental data taken from patent US20180318196A1, “COMPOSITION FOR PROTECTING THE SKIN AGAINST THE EFFECTS OF POLLUTION AND USE THEREOF” (LUBRIZOL ADVANCED MATERIALS, INC., priority 2015, published 2018).
# Where two headings read alike, the source gives them in different places.
# System: Normal Human Epidermal Keratinocytes from adult (NHEK)
# Assay: Protection from damage induced by Urban Dust, MTT cell viability assay
# Assay type: cell-based
# Protocol: The capacity of protecting skin cell cultures from damage induced by Urban Dust (UD) is evaluated. The UD used is particulate matter (PMs, one of the major air pollutants with effects on the skin) collected in an urban area, Washington DC in 1976 and 1977, with an average particle size of 10.5 μm that contain polycyclic aromatic hydrocarbons (PAHs), polychlorinated biphenyl (PCBs), nitro-PAHs, chlorinated pesticides, dioxins and heavy metals: Damage is generated by the addition of UD to the culture medium and the protection effect from damage of the tested compounds is measured by a cell viability assay.
# The viability is evaluated by MTT (3-[4,5-dimethylthiazol-2-yl]-2,5 diphenyl tetrazolium bromide), an absorbance-based cell viability method. Live cells present mitochondrial dehydrogenase activity that reduces the dye MTT to an insoluble blue colored product easily detected by absorbance, reflecting viable cells. […]
# Then, cellular viability is evaluated. […] Then, plates are shaken for 5 minutes at room temperature protected from light and absorbance read at 570 nm with wavelength correction at 630 nm, using a Microplate Absorbance Reader (Clariostar®,BMG LabTech).
# The percentage of cell viability for each condition is calculated with respect to control without pollutants (cells treated with medium alone and not treated with UD). […]
smiles,measurement,setting,value
"COc1cc2c(cc1O)CCC(C)(C)O2 [LPCH, 7-methoxy-2,2-dimethylchroman-6-ol]",viability at 50 µg/mL,"read-out: Relative Cell Viability with Respect To Control without pollutants (%) (MEAN ± SEM), 50 μg/mL LPCH + 50 μg/mL UD",85.8 ± 3.68%
same,viability at 50 µg/mL,"read-out: Relative Cell Viability with Respect To Control without pollutants (%) (MEAN ± SEM), 50 μg/mL LPCH + 100 μg/mL UD",79 ± 3.21%
